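Cells were grown in 96-well plates and exposed to each compound for 48 hours at five concentrations; endpoints were interpolated linearly between bracketing concentrations, or set to the highest concentration if not reached. GI50 marks 50% less growth.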 Active and inactive are the calls of the source. Cut-off read from the data, not from the text of the source: active = GI50 up to about 1.1 µM and inactive = higher.
Tests used:
Test in all cases: NCI anticancer screen, dose series, 48 h
CCRF-CEM = tested on: CCRF-CEM
SF-295 = tested on: SF-295
KM12 = tested on: KM12
SW-620 = tested on: SW-620
DU-145 = tested on: DU-145
OVCAR-5 = tested on: OVCAR-5
OVCAR-4 = tested on: OVCAR-4
NCI-H522 = tested on: NCI-H522
786-0 = tested on: 786-0
M14 = tested on: M14
MDA-N = tested on: MDA-N
NCI-H23 = tested on: NCI-H23
OVCAR-3 = tested on: OVCAR-3
SN12C = tested on: SN12C
TK-10 = tested on: TK-10
RPMI-8226 = tested on: RPMI-8226
HT-29 = tested on: HT-29
SNB-75 = tested on: SNB-75
A549 = tested on: A549
UO-31 = tested on: UO-31
HCT-116 = tested on: HCT-116
MOLT-4 = tested on: MOLT-4
NCI-H460 = tested on: NCI-H460
CAKI-1 = tested on: CAKI-1
ACHN = tested on: ACHN
SK-MEL-28 = tested on: SK-MEL-28
HCT-15 = tested on: HCT-15
HCC 2998 = tested on: HCC 2998
COLO 205 = tested on: COLO 205
UACC-62 = tested on: UACC-62
K562 = tested on: K562
SK-OV-3 = tested on: SK-OV-3
UACC-257 = tested on: UACC-257
U-251 = tested on: U-251
RXF 393 = tested on: RXF 393
SR = tested on: SR
HOP-92 = tested on: HOP-92
HOP-62 = tested on: HOP-62
MDA-MB-231 = tested on: MDA-MB-231
BT-549 = tested on: BT-549
MCF7 = tested on: MCF7
SNB-19 = tested on: SNB-19
LOX IMVI = tested on: LOX IMVI
IGROV-1 = tested on: IGROV-1
EKVX = tested on: EKVX
SF-268 = tested on: SF-268
SF-539 = tested on: SF-539
PC-3 = tested on: PC-3
MDA-MB-435 = tested on: MDA-MB-435
SK-MEL-5 = tested on: SK-MEL-5
Malme-3M = tested on: Malme-3M
OVCAR-8 = tested on: OVCAR-8
A498 = tested on: A498
NCI/ADR-RES = tested on: NCI/ADR-RES
T47D = tested on: T47D
NCI-H226 = tested on: NCI-H226
SK-MEL-2 = tested on: SK-MEL-2
HL-60 = tested on: HL-60

`CC(C)Sc1nncc(/C(N)=N/O)n1` was tested, and the GI50 (CCRF-CEM) was > 100 µM (inactive), the GI50 (SF-295) was > 100 µM (inactive) and the GI50 (KM12) was 88.5 µM (inactive). For the same compound, the GI50 (SW-620) was > 100 µM (inactive), the GI50 (DU-145) was > 100 µM (inactive) and the GI50 (OVCAR-5) was > 100 µM (inactive). For the same compound, the GI50 (OVCAR-4) was > 100 µM (inactive), the GI50 (NCI-H522) was > 100 µM (inactive) and the GI50 (786-0) was > 100 µM (inactive). The GI50 (M14) was > 100 µM (inactive), the GI50 (MDA-N) was > 100 µM (inactive) and the GI50 (NCI-H23) was > 100 µM (inactive). For the same compound, the GI50 (OVCAR-3) was > 100 µM (inactive), the GI50 (SN12C) was > 100 µM (inactive) and the GI50 (TK-10) was > 100 µM (inactive). The GI50 (RPMI-8226) was > 100 µM (inactive), the GI50 (HT-29) was > 100 µM (inactive) and the GI50 (SNB-75) was > 100 µM (inactive). The GI50 (A549) was > 100 µM (inactive), the GI50 (UO-31) was > 100 µM (inactive) and the GI50 (HCT-116) was > 100 µM (inactive). For the same compound, the GI50 (MOLT-4) was > 100 µM (inactive), the GI50 (NCI-H460) was > 100 µM (inactive) and the GI50 (CAKI-1) was > 100 µM (inactive). The GI50 (ACHN) was > 100 µM (inactive), the GI50 (SK-MEL-28) was > 100 µM (inactive) and the GI50 (HCT-15) was over 100 µM. For the same compound, the GI50 (HCC 2998) was > 100 µM (inactive), the GI50 (COLO 205) was > 100 µM (inactive) and the GI50 (UACC-62) was > 100 µM (inactive). For the same compound, the GI50 (K562) was > 100 µM (inactive), the GI50 (SK-OV-3) was > 100 µM (inactive) and the GI50 (UACC-257) was > 100 µM (inactive). The GI50 (U-251) was > 100 µM (inactive), the GI50 (RXF 393) was > 100 µM (inactive) and the GI50 (SR) was > 100 µM (inactive). The GI50 (HOP-92) was 92 µM (inactive), the GI50 (HOP-62) was > 100 µM (inactive) and the GI50 (MDA-MB-231) was > 100 µM (inactive). The GI50 (BT-549) was > 100 µM (inactive), the GI50 (MCF7) was > 100 µM (inactive) and the GI50 (SNB-19) was > 100 µM (inactive). The GI50 (LOX IMVI) was > 100 µM (inactive), the GI50 (IGROV-1) was > 100 µM (inactive) and the GI50 (EKVX) was > 100 µM (inactive). For the same compound, the GI50 (SF-268) was > 100 µM (inactive), the GI50 (SF-539) was > 100 µM (inactive) and the GI50 (PC-3) was > 100 µM (inactive). For the same compound, the GI50 (MDA-MB-435) was > 100 µM (inactive), the GI50 (SK-MEL-5) was > 100 µM (inactive) and the GI50 (Malme-3M) was > 100 µM (inactive). For the same compound, the GI50 (OVCAR-8) was > 100 µM (inactive), the GI50 (A498) was > 100 µM (inactive) and the GI50 (NCI/ADR-RES) was > 100 µM (inactive). For the same compound, the GI50 (T47D) was > 100 µM (inactive) and the GI50 (NCI-H226) was > 100 µM (inactive).

With `CCN(C(=O)N[C@@H](Cc1ccccc1)C(=O)N[C@@H](CC(C)C)C(=O)NC)c1ccccc1` the GI50 (CCRF-CEM) was > 100 µM (inactive), the GI50 (SF-295) was > 100 µM (inactive) and the GI50 (KM12) was > 100 µM (inactive). For the same compound, the GI50 (SW-620) was > 100 µM (inactive), the GI50 (DU-145) was > 100 µM (inactive) and the GI50 (OVCAR-5) was > 100 µM (inactive). For the same compound, the GI50 (OVCAR-4) was > 100 µM (inactive), the GI50 (NCI-H522) was > 100 µM (inactive) and the GI50 (786-0) was > 100 µM (inactive). The GI50 (M14) was > 100 µM (inactive), the GI50 (MDA-N) was > 100 µM (inactive) and the GI50 (NCI-H23) was > 100 µM (inactive). For the same compound, the GI50 (OVCAR-3) was > 100 µM (inactive), the GI50 (SN12C) was > 100 µM (inactive) and the GI50 (TK-10) was > 100 µM (inactive). The GI50 (RPMI-8226) was 77.1 µM (inactive), the GI50 (HT-29) was > 100 µM (inactive) and the GI50 (SNB-75) was 95.3 µM (inactive). The GI50 (A549) was > 100 µM (inactive), the GI50 (UO-31) was > 100 µM (inactive) and the GI50 (HCT-116) was > 100 µM (inactive). The GI50 (MOLT-4) was > 100 µM (inactive), the GI50 (NCI-H460) was > 100 µM (inactive) and the GI50 (CAKI-1) was > 100 µM (inactive). The GI50 (ACHN) was > 100 µM (inactive), the GI50 (SK-MEL-28) was > 100 µM (inactive) and the GI50 (HCT-15) was over 100 µM. The GI50 (HCC 2998) was > 100 µM (inactive), the GI50 (COLO 205) was > 100 µM (inactive) and the GI50 (UACC-62) was > 100 µM (inactive). For the same compound, the GI50 (SK-MEL-2) was > 100 µM (inactive), the GI50 (K562) was > 100 µM (inactive) and the GI50 (SK-OV-3) was > 100 µM (inactive). For the same compound, the GI50 (UACC-257) was > 100 µM (inactive), the GI50 (U-251) was > 100 µM (inactive) and the GI50 (RXF 393) was > 100 µM (inactive). The GI50 (HOP-92) was > 100 µM (inactive), the GI50 (HOP-62) was > 100 µM (inactive) and the GI50 (MDA-MB-231) was > 100 µM (inactive). The GI50 (BT-549) was > 100 µM (inactive), the GI50 (MCF7) was > 100 µM (inactive) and the GI50 (SNB-19) was > 100 µM (inactive). The GI50 (LOX IMVI) was > 100 µM (inactive), the GI50 (IGROV-1) was > 100 µM (inactive) and the GI50 (EKVX) was > 100 µM (inactive). The GI50 (SF-539) was > 100 µM (inactive), the GI50 (PC-3) was > 100 µM (inactive) and the GI50 (MDA-MB-435) was > 100 µM (inactive). The GI50 (SK-MEL-5) was > 100 µM (inactive), the GI50 (Malme-3M) was > 100 µM (inactive) and the GI50 (OVCAR-8) was > 100 µM (inactive). The GI50 (NCI/ADR-RES) was > 100 µM (inactive), the GI50 (T47D) was > 100 µM (inactive) and the GI50 (NCI-H226) was > 100 µM (inactive).

With `COc1cccc(CN(C(=O)/C=C\Sc2ccccc2)C(C)(C)C)c1` the GI50 (CCRF-CEM) was 0.435 µM (active), the GI50 (SF-295) was > 100 µM (inactive) and the GI50 (KM12) was > 100 µM (inactive). For the same compound, the GI50 (SW-620) was > 100 µM (inactive), the GI50 (DU-145) was > 100 µM (inactive) and the GI50 (OVCAR-5) was > 100 µM (inactive). The GI50 (OVCAR-4) was 96.8 µM (inactive), the GI50 (786-0) was > 100 µM (inactive) and the GI50 (M14) was 84.7 µM (inactive). For the same compound, the GI50 (MDA-N) was 74 µM (inactive), the GI50 (NCI-H23) was > 100 µM (inactive) and the GI50 (OVCAR-3) was 52.5 µM (inactive). For the same compound, the GI50 (SN12C) was > 100 µM (inactive), the GI50 (TK-10) was > 100 µM (inactive) and the GI50 (HT-29) was 31.1 µM (inactive). For the same compound, the GI50 (A549) was 43.8 µM (inactive), the GI50 (UO-31) was 48.3 µM (inactive) and the GI50 (HCT-116) was 33 µM (inactive). For the same compound, the GI50 (MOLT-4) was 18.1 µM (inactive), the GI50 (CAKI-1) was > 100 µM (inactive) and the GI50 (ACHN) was > 100 µM (inactive). The GI50 (SK-MEL-28) was > 100 µM (inactive), the GI50 (HCT-15) was 44.6 µM and the GI50 (HCC 2998) was > 100 µM (inactive). For the same compound, the GI50 (COLO 205) was 63.7 µM (inactive), the GI50 (UACC-62) was > 100 µM (inactive) and the GI50 (SK-MEL-2) was 54.8 µM (inactive). The GI50 (HL-60) was 20.5 µM (inactive), the GI50 (SK-OV-3) was > 100 µM (inactive) and the GI50 (UACC-257) was 41 µM (inactive). The GI50 (U-251) was > 100 µM (inactive), the GI50 (HOP-92) was 2.61 µM (inactive) and the GI50 (HOP-62) was > 100 µM (inactive). The GI50 (MDA-MB-231) was > 100 µM (inactive), the GI50 (BT-549) was 90.2 µM (inactive) and the GI50 (MCF7) was 81.3 µM (inactive). For the same compound, the GI50 (SNB-19) was > 100 µM (inactive), the GI50 (LOX IMVI) was 32.5 µM (inactive) and the GI50 (IGROV-1) was 57.1 µM (inactive). The GI50 (EKVX) was 90.6 µM (inactive), the GI50 (SF-539) was > 100 µM (inactive) and the GI50 (PC-3) was 33 µM (inactive). The GI50 (MDA-MB-435) was 86.5 µM (inactive), the GI50 (SK-MEL-5) was 49 µM (inactive) and the GI50 (OVCAR-8) was > 100 µM (inactive). For the same compound, the GI50 (A498) was > 100 µM (inactive), the GI50 (NCI/ADR-RES) was 58.9 µM (inactive) and the GI50 (T47D) was 17.6 µM (inactive). For the same compound, the GI50 (NCI-H226) was > 100 µM (inactive).

Reference: ChEMBL document CHEMBL1201862, “PubChem BioAssay data set” (2004)
